From BindingDB's records for doi:10.1080/14756360903179351 (University of Tehran, 2010)
Where “and” joins values, the source holds several entries; their conditions need not be identical. Equal entries are not always repeated. Structures can show the parent of a compound that is named as a salt.

Target: T1, Polyphenol oxidase 1 (White button mushroom, UniProt Q00024)
T1 sequence (Q00024 whole entry): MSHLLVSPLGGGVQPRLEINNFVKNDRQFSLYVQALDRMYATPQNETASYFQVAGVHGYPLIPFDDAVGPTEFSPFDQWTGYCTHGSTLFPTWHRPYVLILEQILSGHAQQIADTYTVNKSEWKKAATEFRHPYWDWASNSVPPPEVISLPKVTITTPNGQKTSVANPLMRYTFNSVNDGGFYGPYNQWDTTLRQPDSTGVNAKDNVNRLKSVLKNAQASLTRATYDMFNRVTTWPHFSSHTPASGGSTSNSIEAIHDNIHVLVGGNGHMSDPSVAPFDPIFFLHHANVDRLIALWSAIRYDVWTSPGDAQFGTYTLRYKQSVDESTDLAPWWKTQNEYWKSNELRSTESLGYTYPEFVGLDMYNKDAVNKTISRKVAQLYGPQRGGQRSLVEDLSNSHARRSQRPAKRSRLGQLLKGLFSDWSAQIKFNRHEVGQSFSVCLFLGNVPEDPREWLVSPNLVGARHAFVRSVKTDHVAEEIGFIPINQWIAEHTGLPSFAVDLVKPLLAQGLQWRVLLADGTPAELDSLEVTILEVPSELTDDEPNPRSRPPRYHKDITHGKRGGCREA
Assay: MT Kinetic Assay
Settings: pH 6.8
Experimental: The assay was performed as previously described with slight modifications [Chen et al., J. Agric. Food Chem., 50:4108-12]. The reaction medium was 1 mL in 50 mM phosphate buffer (pH 6.8). The final concentration of mushroom tyrosinase was 26.07 μg/mL for cresolase activity and 6.52 μg/mL for catecholase activity. Freshly prepared enzyme, substrate, and dithiocarbamates I and II were used in this work. The reaction was carried out under constant temperatures of 27 and 37°C. Substrate addition followed incubation of the enzyme with different concentrations of synthetic inhibitors.

Compound | Ki (27 °C) | Ki (37 °C)
S=C(S)NCc1ccccc1 | 14.1 µM and 9.4 µM | 5.9 µM and 5.7 µM
S=C(S)NCc1ccc(CNC(=S)S)cc1 [p-Xylidine-bis(dithiocarbamate) sodium salt (II)] | 0.64 µM and 0.29 µM | 0.95 µM and 1.05 µM
